Source: PubChem BioAssay AID652002 (Sanford-Burnham Center for Chemical Genomics, 2013)
Calls of active or inactive are those of the source. The rule behind the calls is not given here.

Experiments:
[1] = TRAIL sensitizers in caspase-8 expressing neuroblastoma cells, dose response, NB7 cells plus caspase-8, luminescence, panel (AID 652002); conditions: NB7 neuroblastoma +caspase-8, no TRAIL, compound-alone cytotoxicity counter-screen, luminescence viability, NB7+Caspase-8
NB7+Caspase-8 = experiment: as above; conditions: NB7 neuroblastoma +caspase-8, TRAIL sensitization, luminescence viability, with TRAIL
[2] = molecular target: Tumor necrosis factor receptor superfamily member 10B (Homo sapiens) (UniProt O14763); experiment: as above; conditions: NB7 neuroblastoma +caspase-8, TRAIL sensitization, luminescence viability; NB7+Caspase-8; with TRAIL, mean of runs
[3] = run 1, single replicate panel EC50
[4] = run 2, single replicate panel EC50

Sequence of Tumor necrosis factor receptor superfamily member 10B (Homo sapiens) (O14763 whole entry, looked up): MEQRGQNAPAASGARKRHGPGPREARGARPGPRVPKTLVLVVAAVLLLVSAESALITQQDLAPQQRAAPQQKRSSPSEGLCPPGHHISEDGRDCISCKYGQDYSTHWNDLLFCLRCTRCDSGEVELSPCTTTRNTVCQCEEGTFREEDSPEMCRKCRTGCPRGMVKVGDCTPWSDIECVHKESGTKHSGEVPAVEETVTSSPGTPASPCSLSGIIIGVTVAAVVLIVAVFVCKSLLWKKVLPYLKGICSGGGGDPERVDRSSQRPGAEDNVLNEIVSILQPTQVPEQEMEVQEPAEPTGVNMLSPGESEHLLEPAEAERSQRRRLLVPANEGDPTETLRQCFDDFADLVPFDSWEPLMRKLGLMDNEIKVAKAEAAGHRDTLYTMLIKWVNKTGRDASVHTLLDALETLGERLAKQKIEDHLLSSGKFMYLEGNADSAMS

| SMILES | EC50 ([1]; mean of runs) | EC50 [1, 3] [µM] | EC50 [1, 4] [µM] | EC50 (NB7+Caspase-8; [3]) [µM] | EC50 (NB7+Caspase-8; [4]) [µM] | EC50 [2] |
| --- | --- | --- | --- | --- | --- | --- |
| CC(C)(C)OC(=O)[C@H](Cc1ccccc1)NC(=O)c1[nH]cnc1C(=O)Nc1ccccc1F | > 12.5 µM (inactive) | > 12.5 | > 12.5 | > 12.5 | > 12.5 | > 12.5 µM (inactive) |
| Cc1cccc(CC(=O)Nc2cc(C)c3c(=O)oc4ccccc4c3n2)c1 | > 12.5 µM (inactive) | > 12.5 | > 12.5 | > 12.5 | > 12.5 | > 12.5 µM (inactive) |
| CCOC(=O)c1sc(NC(=O)Nc2ccc(F)cc2)nc1C | > 12.5 µM (inactive) | > 12.5 | > 12.5 | > 12.5 | > 12.5 | > 12.5 µM (inactive) |
| O/C(=C\c1ccc2ccccc2n1)c1ccc(O)cc1O | > 12.5 µM (inactive) | > 12.5 | > 12.5 | > 12.5 | 7.58 | inactive |
| CC1(C)N=C(N)N=C(N)N1c1ccc(CCCCc2ccccc2)cc1 | inactive | > 12.5 | < 0.39 | < 0.39 | < 0.391 | < 0.39 µM (inactive) |
| CCOC(=O)c1ccc(N/C=C/C(=O)c2ccco2)cc1 | > 12.5 µM (inactive) | > 12.5 | > 12.5 | > 12.5 | > 12.5 | > 12.5 µM (inactive) |
| O=C(N/N=C/c1ccc2cccnc2c1)c1ccco1 | inactive | 11.4 | 12.1 | > 12.5 | 6.53 | inactive |
| c1ccc(-c2cnc(-c3ccccn3)nn2)cc1 | inactive | 5.74 | 10 | > 12.5 | 5.78 | inactive |
| COc1cc(NC(=O)c2cncc(-c3ccc(C#N)cc3)c2)cc(C(=O)Nc2cccc(C(F)(F)F)c2)c1 | > 12.5 µM (inactive) | > 12.5 | > 12.5 | > 12.5 | > 12.5 | > 12.5 µM (inactive) |
| COc1ccc(-c2cc(C(=O)OCC(=O)Nc3ccc4c(c3)OCO4)c3ccccc3n2)cc1 | inactive | 6.39 | 6.23 | > 12.5 | 7.82 | inactive |
| CN1C[C@@H]2[C@@H]3C(=O)N(Cc4ccccc4)C(=O)[C@@H]3[C@](Cc3ccccc3)(C1=O)N2C(=O)c1ccc(C(C)(C)C)cc1 | > 12.5 µM (inactive) | > 12.5 | > 12.5 | > 12.5 | > 12.5 | > 12.5 µM (inactive) |
| Cc1ccc2c(c1)C(=NC1CCCCC1)c1cc3ccccc3nc1-2 | > 12.5 µM (inactive) | > 12.5 | > 12.5 | > 12.5 | > 12.5 | > 12.5 µM (inactive) |
| COC(=O)[C@]12CCCCC=C1N(Cc1cccc3ccccc13)C(=O)[C@H](CC(=O)NCc1ccc(OC)c(OC)c1)C2 | inactive | > 12.5 | 10.2 | > 12.5 | 10.7 | inactive |
| CCCCCCc1cc2cc(S(=O)(=O)c3ccc(F)c(Cl)c3)c(=O)oc2cc1O | > 12.5 µM (inactive) | > 12.5 | > 12.5 | > 12.5 | > 12.5 | > 12.5 µM (inactive) |
| Cc1ccc(S(=O)(=O)Nc2ccccc2C(=O)Nc2nc(-c3ccc(F)cc3)cs2)cc1 | inactive | > 12.5 | 8.36 | > 12.5 | 9.9 | inactive |
| O=C(N/N=C/c1cccnc1)c1ccc2c(c1)OCO2 | inactive | 11.2 | > 12.5 | > 12.5 | > 12.5 | > 12.5 µM (inactive) |
| COc1ccc(/C(C)=N/Nc2nncc3ccccc23)cc1 | > 12.5 µM (inactive) | > 12.5 | > 12.5 | 7.33 | > 12.5 | inactive |
| Cc1cc(N/N=C/c2ccccc2)nc(NCc2ccccc2)n1 | > 12.5 µM (inactive) | > 12.5 | > 12.5 | > 12.5 | 10.9 | inactive |
| c1ccc(Nc2nnc(-c3cccnc3)s2)cc1 | > 12.5 µM (inactive) | > 12.5 | > 12.5 | > 12.5 | 5.66 | inactive |
| COc1ccc(/C=N/Nc2nc3ccccc3c(=O)n2-c2ccccc2)cc1OC | inactive | 7.35 | 9.86 | > 12.5 | 9.41 | inactive |
